Measurements: patent US20170121315A1, “HETEROBICYCLICALLY SUBSTITUTED 4-OXOBUTANE ACID DERIVATIVES AND USE THEREOF” (priority 2014, published 2017)

Legend:
[1] = molecular target: T1, human macrophage elastase (HME/hMMP-12) (Homo sapiens, UniProt P39900); test: In vitro HME inhibition test (standard or high-sensitivity); format: biochemical; conditions: in some cases mean values, rounded to two significant figures
T1 construct: purchased R&D Systems 917-MP
Outline: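 Autoactivated HME (0.5 nM; high-sensitivity format 0.05 nM, ~16 h) with 5 μM quenched Mca-PLGLEEA-Dap(Dnp)-NH2 substrate in HEPES pH 7.4, NaCl, CaCl2, ZnCl2, EDTA, Brij buffer, 2 h at 37° C. Fluorescence at ex 323/em 393 nm; IC50 from signal versus concentration.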

rat hepatocytes = test: Hepatocyte assay for determination of metabolic stability; format: in vitro ADME; conditions: after incubation with rat hepatocytes
Protocol: The metabolic stability of test compounds towards hepatocytes is determined by incubating the compounds at low concentrations (preferably below or around 1 μM) and at low cell counts (preferably at 1*10^6 cells/ml) in order to ensure maximum linearity of kinetic conditions in the experiment. Seven samples from the incubation solution are taken for the LC-MS analysis within a fixed time pattern, in order to determine the half-life (i.e. the degradation) of the particular compound. This half-life is used to calculate various “Clearance” parameters (CL) and “Fmax” values (see below).
The CL and Fmax values are a measure of the phase 1 and phase 2 metabolism of the compounds in the hepatocytes. In order to minimize the influence of the organic solvent on the enzymes in the incubation batches, the concentration thereof is generally limited to 1% (acetonitrile) or 0.1% (DMSO).
For all species and breeds, a hepatocyte cell count in the liver of 1.1*10^8 cells/g of liver is expected.

T1 sequence (P39900 106-470): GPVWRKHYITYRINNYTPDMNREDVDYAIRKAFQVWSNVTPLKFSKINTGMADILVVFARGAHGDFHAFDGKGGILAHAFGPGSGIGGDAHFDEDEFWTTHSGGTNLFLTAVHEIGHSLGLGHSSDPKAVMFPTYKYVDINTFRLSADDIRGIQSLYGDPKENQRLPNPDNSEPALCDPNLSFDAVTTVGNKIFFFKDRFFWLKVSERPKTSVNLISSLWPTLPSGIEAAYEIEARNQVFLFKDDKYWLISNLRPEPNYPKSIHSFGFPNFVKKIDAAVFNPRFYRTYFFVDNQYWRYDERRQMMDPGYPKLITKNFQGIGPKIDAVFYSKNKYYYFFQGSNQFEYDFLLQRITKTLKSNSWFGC

Row | IC50 [1] | CLblood (calculated blood clearance, well-stirred) (rat hepatocytes) | Fmax (maximum possible bioavailability after oral administration, well-stirred) (rat hepatocytes) | Structure (SMILES)
1 | 0.68 nM | 22 mL/min/kg | 68.5% | NC(=O)c1cccc(COc2ccc3oc(C(=O)CC(CCn4nnc5ccccc5c4=O)C(=O)O)cc3c2)c1 (racemic) [Example 32, (+/−)-4-{5-[(3-Carbamoylbenzyl)oxy]-1-benzofur-2-yl}-4-oxo-2-[2-(4-oxo-1,2,3-benzotriazin-3(4H)-yl)ethyl]butanoic acid]
2 | 0.72 nM | 12.5 mL/min/kg | 82.1% | CS(=O)(=O)c1ccc(COc2ccc3oc(C(=O)CC(CCn4nnc5ccccc5c4=O)C(=O)O)cc3c2)cc1 (racemic) [Example 38, (+/−)-4-(5-{[4-(Methylsulphonyl)benzyl]oxy}-1-benzofur-2-yl)-4-oxo-2-[2-(4-oxo-1,2,3-benzotriazin-3(4H)-yl)ethyl]butanoic acid]
3 | 0.24 nM | 13.3 mL/min/kg | 81.1% | O=C(CC(CCn1nnc2ccccc2c1=O)C(=O)O)c1noc2cc(OCC3CCOCC3)ccc12 (racemic) [Example 133, (+/−)-4-Oxo-2-[2-(4-oxo-1,2,3-benzotriazin-3(4H)-yl)ethyl]-4-[6-(tetrahydro-2H-pyran-4-ylmethoxy)-1,2-benzoxazol-3-yl]butanoic acid]
4 | 0.82 nM | 25.8 mL/min/kg | 63.2% | O=C(CC(CCn1nnc2ccccc2c1=O)C(=O)O)c1coc2cc(OCc3ccc(Cl)c(Cl)c3)ccc12 (single isomer, unassigned) [Example 94, 4-{6-[(3,4-Dichlorobenzyl)oxy]-1-benzofur-3-yl}-4-oxo-2-[2-(4-oxo-1,2,3-benzotriazin-3(4H)-yl)ethyl]butanoic acid]
5 | 2.1 nM | 35.7 mL/min/kg | 48.9% | CCCCCOc1ccc2cc(C(=O)CC(CCn3nnc4ccccc4c3=O)C(=O)O)oc2c1 (single isomer, unassigned; (+)) [Example 57, (+)-4-Oxo-2-[2-(4-oxo-1,2,3-benzotriazin-3(4H)-yl)ethyl]-4-[6-(pentyloxy)-1-benzofur-2-yl]butanoic acid]
6 | 24 nM | 19.7 mL/min/kg | 71.8% | O=C(C[C@@H](CCn1nnc2ccccc2c1=O)C(=O)O)c1noc2cc(OCC3CCOCC3)ccc12 (single isomer, unassigned; enantiomer 1) [Example 134]
7 | 0.12 nM | 34.8 mL/min/kg | 50.3% | O=C(CC(CCn1nnc2ccc(C(F)(F)F)cc2c1=O)C(=O)O)c1cc2ccc(OCC3CC3)cc2s1 (single isomer, unassigned; enantiomer 2) [Example 130, 4-[6-(Cyclopropylmethoxy)-1-benzothiophen-2-yl]-4-oxo-2-{2-[4-oxo-6-(trifluoromethyl)-1,2,3-benzotriazin-3(4H)-yl]ethyl}butanoic acid (enantiomer 2)]
8 | 0.019 nM |  |  | O=C(CC(CCn1nnc2ccccc2c1=O)C(=O)O)c1noc2cc(OCCC3CCCCC3)ccc12 (single isomer, unassigned; enantiomer 2) [Example 143, (+)-4-[6-(2-Cyclohexylethoxy)-1,2-benzoxazol-3-yl]-4-oxo-2-[2-(4-oxo-1,2,3-benzotriazin-3(4H)-yl)ethyl]butanoic acid (enantiomer 2)]
